The record followed here is ChEMBL document CHEMBL1649448, “Atorvastatin is a promising partner for antimalarial drugs in treatment of Plasmodium falciparum malaria” (Antimicrob Agents Chemother, 2009).

As a reminder, the IC50 is the concentration that inhibits the measured activity by half.

Holding throughout (format): functional, organism-based
Test [1] concerns Plasmodium falciparum. Description: Antimalarial activity against Plasmodium falciparum HB3 harboring Ppcrt I371R mutant gene and Pfmdr1 Y184F mutant gene assessed as incorporation of [3H]hypoxanthine after 48 hrs by scintillation counter.
Test [2] deals with Plasmodium falciparum. Description: Antimalarial activity against Plasmodium falciparum IMT Bres assessed as incorporation of [3H]hypoxanthine after 48 hrs by scintillation counter.
Test [3] has as its system Plasmodium falciparum. In words: Antimalarial activity against Plasmodium falciparum 106/1 assessed as incorporation of [3H]hypoxanthine after 48 hrs by scintillation counter.
The test system of test [4] is Plasmodium falciparum. Description: Antimalarial activity against Plasmodium falciparum FCR3 harboring Ppcrt M74I, N75E, K76T, A220S, Q271E, N326S and I356T mutant gene, Pmdr1 N86Y mutant gene and Pfmrp H191Y and S437A mutant gene assessed as incorporation of [3H]hypoxanthine after 48 hrs by scintillation counter.
The subject of test [5] is Plasmodium falciparum. In words: Antimalarial activity against Plasmodium falciparum 3D7 assessed as incorporation of [3H]hypoxanthine after 48 hrs by scintillation counter.
Test [6] concerns Plasmodium falciparum. In words: Antimalarial activity against Plasmodium falciparum FCR3 assessed as incorporation of [3H]hypoxanthine after 48 hrs by scintillation counter.
Test [7] relates to Plasmodium falciparum. Description: Antimalarial activity against Plasmodium falciparum IMT K2 harboring Ppcrt M74I, N75E, K76T, A220S, Q271E, N326S mutant gene, Pmdr1 S1034C, N1042D mutant gene and Pfmrp H191Y and S437A mutant gene assessed as incorporation of [3H]hypoxanthine after 48 hrs by scintillation counter.
The subject of test [8] is Plasmodium falciparum. Description: Antimalarial activity against Plasmodium falciparum IMT 9881 assessed as incorporation of [3H]hypoxanthine after 48 hrs by scintillation counter.
For test [9], the system named is Plasmodium falciparum. In words: Antimalarial activity against Plasmodium falciparum IMT 8425 assessed as incorporation of [3H]hypoxanthine after 48 hrs by scintillation counter.
For test [10], the system named is Plasmodium falciparum. Description: Antimalarial activity against Plasmodium falciparum IMT 8425 harboring Ppcrt I371R mutant gene and Pfnhe-1 ms4760 microsatellite mutant assessed as incorporation of [3H]hypoxanthine after 48 hrs by scintillation counter.
Test [11] concerns Plasmodium falciparum. In words: Antimalarial activity against Plasmodium falciparum IMT 10336 assessed as incorporation of [3H]hypoxanthine after 48 hrs by scintillation counter.
Test [12] relates to Plasmodium falciparum. In words: Antimalarial activity against Plasmodium falciparum IMT A4 assessed as incorporation of [3H]hypoxanthine after 48 hrs by scintillation counter.

Consider `CC(C)c1c(C(=O)Nc2ccccc2)c(-c2ccccc2)c(-c2ccc(F)cc2)n1CC[C@@H](O)C[C@@H](O)CC(=O)O` [ATORVASTATIN], for which the IC50 in the test with Plasmodium falciparum [1] stood at 10.8 µM; with Plasmodium falciparum [2], 2500 nM; in the test on Plasmodium falciparum [3] it was 2500 nM; in the test on Plasmodium falciparum [4], 8.7 µM; in the test on Plasmodium falciparum [5], 2500 nM; with Plasmodium falciparum [6], 2500 nM. Moreover, the IC50 with Plasmodium falciparum [7] was found to be 8.6 µM; in the test on Plasmodium falciparum [8], 2500 nM; in the test with Plasmodium falciparum [9], 2500 nM; in the test with Plasmodium falciparum [10], 9.7 µM; in the test with Plasmodium falciparum [11], 2500 nM; with Plasmodium falciparum [12] it was 2500 nM.
